Data as given in patent US20250213614A1, “Modified RELA Protein for Inducing Interferon Expression and Engineered Immune Cells with Improved Interferon Expression” (Institut Curie, priority 2022, published 2025).

B1: IRF3: interferon Regulatory Factor 3, over-expressed from lentivector (protein, UniProt Q14653 1-427, looked up)
Interferon regulatory factor 3: MGTPKPRILPWLVSQLDLGQLEGVAWVNKSRTRFRIPWKHGLRQDAQQEDFGIFQAWAEATGAYVPGRDKPDLPTWKRNFRSALNRKEGLRLAEDRSKDPHDPHKIYEFVNSGVGDFSQPDTSPDTNGGGSTSDTQEDILDELLGNMVLAPLPDPGPPSLAVAPEPCPQPLRSPSLDNPTPFPNLGPSENPLKRLLVPGEEWEFEVTAFYRGRQVFQQTISCPEGLRLVGSEVGDRTLPGWPVTLPDPGMSLTDRGVMSYVRHVLSCLGGGLALWRAGQWLWAQRLGHCHTYWAVSEELLPNSGHGPDGEVPKDKEGGVFDLGPFIVDLITFTEGSGRSPRYALWFCVGESWPQDQPWTKRLVMVKVVPTCLRALVEMARVGGASSLENTVDLHISNSHPLSLTSDQYKAYLQDLVEGMDFQGPGES

Columns and labels:
CD4+ T cells = assay: IFN-I/III quantification (LEGENDplex) in CD4+ T cells, baseline or after STING stimulation; type: cell-based, human
Method: Plasmapheresis blood pockets were obtained from healthy adult volunteers after informed consent from the EFS (Establishment of French blood collection). Peripheral blood mononuclear cells (PBMCs) were isolated using Ficoll-Paque Plus (GE-17144003) and left overnight at 4° C. in RPMI (Thermo fischer #61870-010) with 10% heat-decomplemented fetal bovine serum (FBS, Eurobio #CVFSVFO0-01). CD14+ cells were enriched by positive selection (Miltenyi #130-050-201), the CD14 negative fraction was subsequently used to isolate total CD4+ T cells by negative selection (Stem Cell #17952). CD14+ cells were cultured in RPMI containing 10% FBS, 5% Penicillin-Streptomycin (PS, Thermo Fisher #10378-016), 50 μg/ml Gentamicin (Thermo Fisher #15750-045) and 10 mM HEPES (Thermo Fisher #15630-056). CD14+ cells were differentiated ex vivo into MDDC by supplementing the culture media with 50 ng/ml IL-4 (Miltenyi #130-093-922) and 10 ng/ml GM-CSF (Miltenyi #130-093-867). MDDC were used for experiments 3 or 4 days following the start of the culture. CD14+ cells were differentiated ex vivo into macrophages by adding 50 ng/ml MCSF (Miltenyi #130-096-492) to the culture media containing RPMI with 1% PS, 5% FBS and 5% human serum (Sigma #H4522). MDM were used 7 days following culture. Freshly isolated CD4+ T cells were cultured in X-VIVO 15 (Lonza #BE02-060F) and activated using anti-CD3 and anti-CD28 Dynabeads (fisher scientific #10548353) at the ratio of 1:5 (bead:cell). 100 U/ml human IL-2 (Immunotools #11340027) was added to cultures 2 days following TCR stimulation and media with IL-2 was replenished every 48 hours. To assess proliferation, freshly isolated CD4+ T cells were stained with cell proliferation dye (thermo fischer #65-0840-85) prior to TCR stimulation.
CD14+ cells were plated at 1 million cells/ml and transduced with equal volumes of freshly harvested SIV-VLPs and pTRIP-SFFV vectors in the presence of 8 μg/ml protamine (Sigma #P4020). CD4+ T cells were transduced with lentivectors 24 hours post-TCR stimulation in 100 μl of cells (0.2 million cells) and 100 μl of freshly harvested lentivirus in the presence of 8 μg/ml protamine. T cells were spinoculated at 1200 g for 2 hours at 25° C. 0.5 million THP-1 cells in 500 μl media (RPMI 10% FBS 1% PS) were transduced with 500 μl freshly harvested lentivirus in the presence of 8 μg/ml protamine. 1 μg/ml Puromycin (Invivogen #ant-pr-1) was added 2 days post-transduction when cells were transduced with pLKO.1-puro plasmid.
For stimulation of STING by extracellular ligands, 2.5 μg of ADUS100 (invivogen #tlrl-nacda2r-01) or 2′3′-cGAMP (cGAMP, invivogen #tlrl-nacga23-02) was added to 100,000 cells in 100 μl media either on freshly isolated primary cells or 3-4 days post differentiation for MDDC and 3 days post-TCR stimulation for CD4+ T cells. Cells and supernatant were harvested 18-24 hours post stimulation. For delivery of STING ligands after permeabilization, T cells were used 3 or 4 days post TCR stimulation and MDDC were used 3-4 days following differentiation. 150,000 cells were plated in round bottom 96-well plate. Media was removed by centrifugation and 20 μl 2× permeabilization buffer (100 mM HEPES, 200 mM KCl, 6 mM MgCl2, 0.2 mM DTT, 170 mM Sucrose, 2 mM ATP, 2 mM GTP, 0.4% bovine serum albumin (BSA), 20 μg/ml digitonin) and 20 μl cGAMP (12 μg/ml) was added to cells. 18 to 20 hours following stimulation supernatants and cells were harvested. Cells were stained with a fixable viability dye (Invitrogen #65-0865-14) and acquired on a FACSVerse (BD). […]
Where indicated, cells were treated with 5-Azacytidine (5AZA, Sigma #A2385) 48 hours prior to cGAMP stimulation. Fresh 5AZA was added daily to cells, and media was replenished with 5AZA following cGAMP stimulation. 100 nM Trichostatin A (TSA) (sigma #T1952) was added to cells following cGAMP stimulation and left overnight. […]

[1] = test system: IFNL1 and IFNB transcripts; assay: RT-qPCR gene expression analysis in CD4+ T cells; type: cell-based, human; settings: IRF3 over-expression in CD4+ T cells, data not shown
Method: RNA was extracted from 0.4-1 million cells using the Nucleospin RNA II kits (Macherey-Nagel #740955.50). cDNA was synthesized using random primers (invitrogen #48190-011) from 0.1 μg RNA using Superscript III Reverse transcriptase (fisher scientific #18080044). Real-time qPCR (RT-qPCR) was carried out in 20 μl reactions using SYBR Green I Master (Roche #4887352001). Primers used were as follows: […]

Row | Molecule | expression of IFNλ1 and IRF7 (CD4+ T cells; RELA K5R expressed in CD4+ T cells, no stimulation) | IFNλ1 after cGAMP stimulation (CD4+ T cells; lentivector overexpression in CD4+ T cells, FIG. 2B, 2D, 2F) | IFNα2 in response to cGAMP (CD4+ T cells; lentivector overexpression in CD4+ T cells, FIG. 2D, 2F) | baseline IFNλ1 expression (CD4+ T cells; lentivector overexpression in CD4+ T cells, no cGAMP, FIG. 2D, 2F) | IFNL1 and IFNB transcripts in response to cGAMP [1] | IFNα2 response to cGAMP (CD4+ T cells; IRF3 over-expression alone in CD4+ T cells, FIG. 3B) | IFNβ (CD4+ T cells; IRF3 over-expression alone in CD4+ T cells, cGAMP, FIG. 3B)
1 | RELA K5R: RELA mutant converting five lysine residues (K122, K123, K310, K314, K315) to arginine, expressed from lentivector | sufficient to induce | augmented in response to cGAMP | detectable | increased baseline IFNλ1 expression | – | – | –
2 | B1 | – | – | – | – | increased | only to a small extent | remained undetectable
